Measurements: patent US9656991B2, “Inhibitors of glutaminyl cyclase” (PROBIODRUG AG, priority 2007, dated 2017)

Molecular target: glutaminyl cyclase (QC) (Homo sapiens (Human), UniProt Q16769)
Details: QC inhibition, 30° C.
Experimental: All measurements were performed with a BioAssay Reader HTS-7000Plus for microplates (Perkin Elmer) at 30° C. QC activity was evaluated fluorometrically using H-Gln-βNA. The samples consisted of 0.2 mM fluorogenic substrate, 0.25 U pyroglutamyl aminopeptidase (Unizyme, Hørsholm, Denmark) in 0.2 M Tris/HCl, pH 8.0 containing 20 mM EDTA and an appropriately diluted aliquot of QC in a final volume of 250 μl. Excitation/emission wavelengths were 320/410 nm. The assay reactions were initiated by addition of glutaminyl cyclase. QC activity was determined from a standard curve of β-naphthylamine under assay conditions. One unit is defined as the amount of QC catalyzing the formation of 1 μmol pGlu-βNA from H-Gln-βNA per minute under the described conditions.
In a second fluorometric assay, QC was activity determined using H-Gln-AMC as substrate. Reactions were carried out at 30° C. utilizing the NOVOStar reader for microplates (BMG labtechnologies). The samples consisted of varying concentrations of the fluorogenic substrate, 0.1 U pyroglutamyl aminopeptidase (Qiagen) in 0.05 M Tris/HCl, pH 8.0 containing 5 mM EDTA and an appropriately diluted aliquot of QC in a final volume of 250 μl. Excitation/emission wavelengths were 380/460 nm. The assay reactions were initiated by addition of glutaminyl cyclase. […] The kinetic data were evaluated using GraFit software.
Samples consisted of the respective QC substrate, 0.3 mM NADH, 14 mM α-Ketoglutaric acid and 30 U/ml glutamate dehydrogenase in a final volume of 250 μl. […] All samples were measured at 30° C., using either the [sequence]luor Plus or the Sunrise (both from TECAN) reader for microplates. Kinetic data was evaluated using GraFit software.
For inhibitor testing, the sample composition was the same as described above, except of the putative inhibitory compound added. For a rapid test of QC-inhibition, samples contained 4 mM of the respective inhibitor and a substrate concentration at 1 KM. For detailed investigations of the inhibition and determination of Ki-values, influence of the inhibitor on the auxiliary enzymes was investigated first. […] The inhibitory constant was evaluated by fitting the set of progress curves to the general equation for competitive inhibition using GraFit software.

glutaminyl cyclase (QC), sequence (Q16769 29-361): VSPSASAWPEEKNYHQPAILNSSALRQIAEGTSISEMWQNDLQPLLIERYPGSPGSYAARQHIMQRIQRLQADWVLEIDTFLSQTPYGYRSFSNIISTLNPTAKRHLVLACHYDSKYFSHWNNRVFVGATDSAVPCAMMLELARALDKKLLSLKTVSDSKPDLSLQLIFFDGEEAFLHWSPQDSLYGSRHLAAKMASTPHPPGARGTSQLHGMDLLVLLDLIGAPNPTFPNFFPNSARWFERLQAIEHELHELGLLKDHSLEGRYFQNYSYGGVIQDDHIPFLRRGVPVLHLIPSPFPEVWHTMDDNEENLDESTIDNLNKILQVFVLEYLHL

Row | IC50 [µM] | Structure (SMILES)
1 | 404 | CN(Cc1ccc(F)cc1)C(=S)Nc1ccc2[nH]cnc2c1 [Example 65, 1-(4-fluorobenzyl)-3-(1H-benzo[d]imidazol-5-yl)-1-methylthiourea]
2 | 128 | Fc1ccc(C2CCCN2C(=S)Nc2ccc3[nH]cnc3c2)cc1 (stereo not drawn) [Example 66, N-(1H-benzo[d]imidazol-5-yl)-2-(4-fluorophenyl)pyrrolidine-1-carbo-thioamide]
3 | 258 | S=C(Nc1ccc2[nH]cnc2c1)N1CCCC1 [Example 67, N-(1H-benzo[d]imidazol-5-yl)pyrrolidine-1-carbothioamide]
4 | 169 | S=C(Nc1ccc2[nH]cnc2c1)N1CCOCC1 [Example 68, N-(1H-benzo[d]imidazol-5-yl)morpholine-4-carbothioamide]
5 | 172 | S=C(Nc1ccc2[nH]cnc2c1)N1CCCCC1 [Example 69, N-(1H-benzo[d]imidazol-5-yl)piperidine-1-carbothioamide]
6 | 323 | Fc1ccc(N2CCN(C(=S)Nc3ccc4[nH]cnc4c3)CC2)cc1 [Example 70, N-(1H-benzo[d]imidazol-5-yl)-4-(4-fluorophenyl)piperazine-1-carbo-thioamide]
